The term pIC50 denotes the negative decadic logarithm of the IC50, by convention in mol/L. A low value points to a large IC50. As usually defined, the inhibition is how much of the control response was suppressed. Read a low inhibition as little suppression.

pIC50: −log10 of the molar value.

Consider seven compounds from patent US10047059B2, “Substituted quinoxalines for inhibiting kinase activity” (NEUPHARMA, INC., priority 2012, dated 2018).

Assay [1] relates to A375 cells. Briefly: Inhibition of cancer cell growth, MTT or MTS assay, A375. The format is cell-based. Conditions: Homo sapiens, A-375, 72 h incubation. The protocol:
(§1) Inhibition of cell growth by compounds was measured using MTT or MTS assay. Tumor cell lines were purchased from ATCC (American Type Culture Collection, Manassas, Va.). All cell lines were maintained in RPMI 1640 (Hyclone) supplemented with 10% fetal bovine serum (FBS, Hyclone), glutamine (2 mM, Hyclone), and antibiotics (penicillin 100 U/mL and streptomycin 50 μg/mL) at 37° C. in a humidified atmosphere of 5% CO2 in air. Taxol (as a positive control, Sigma) and compounds were dissolved in DMSO (Sigma), and the final concentration of DMSO in the medium was 1%. Tumor cells were plated in 96-well plates at densities of about 2000 (A375) or 4000 (A549 and Colo205) cells/well of a 96-well plate and allowed to adhere/grow for 24 h. They were then treated with various concentrations of drug and incubated for 72 h. For MTT method, medium was then removed by inverting and tapping the plates. 100 μL of MTT (0.5 mg/ml) was added to each well followed by an incubated at 37° C. for 4 h. MTT was then removed and 200 μL of DMSO was added to each well, and the ODs at 570 nm were measured after a 5 second shaking cycle in a 96-well spectrophotometer. For MTS method, 20 μL MTS (CellTiter 96 Aqueous One Solution, Promega) was added to each well followed by an incubated at 37° C. for 2-4 h, solutions were then directly put in a 96-well spectrophotometer, and the ODs at 490 nm were measured.
(§2) All concentrations of compounds were tested in triplicate and controls were averaged over 4 wells. IC50 was calculated by plotting the concentration of compound vs the percentage of inhibition in treated wells using GraphPad Prism 5. […] The scale utilized in Tables 7-9 is as follows: +++ less than 1000 nM; ++ between 1000 nM and 5000 nM; and + greater than 5000 nM. The scale utilized in […]

Assay [2] addresses T1, KDR (VEGFR2) (Homo sapiens, UniProt P35968).
T1 construct: purchased Invitrogen
Briefly: Z'-LYTE kinase inhibition assay against KDR. The assay is classed as biochemical. Conditions: Z'-LYTE method. As for the experimental part: Inhibitory activities of compounds against KDR (VEGFR2) were also measured by Invitrogen using Z′-LYTE® Method as described above with the following modification. The 2×KDR (VEGFR2)/Tyr 01 mixture is prepared in 50 mM HEPES pH 7.5, 0.01% BRIJ-35, 10 mM MgCl2, 1 mM EGTA. The final 10 μL Kinase Reaction consists of 0.5-11.7 ng KDR (VEGFR2) and 2 μM Tyr 01 in 50 mM HEPES pH 7.5, 0.01% BRIJ-35, 10 mM MgCl2, 1 mM EGTA. After the 1 hour Kinase Reaction incubation, 5 μL of a 1:256 dilution of Development Reagent B is added.
The scale utilized in Table 6 is as follows: +++ less than 100 nM; and ++ greater than 100 nM

For assay [3], the target named is T2, BRAF (Homo sapiens, UniProt P15056).
T2 construct: purchased Invitrogen
Description: Z'-LYTE kinase inhibition assay against BRAF. The assay is classed as biochemical. Conditions: Z'-LYTE method. As for the experimental part:
(§3) Inhibitory activities Inhibitory activities of compounds against BRAF, and BRAF V600E were measured by Invitrogen using Z′-LYTE® Method as briefly described in the following. 4× Test compounds are dissolved in 1% DMSO. […] ATP solutions are diluted to a 4×ATP working concentration in Kinase Buffer (50 mM HEPES pH 7.5, 0.01% BRIJ-35, 10 mM MgCl2, 1 mM EGTA). Reaction started by 30-second shaking of mixture consisting of 2.5 μL 4× test compound, […] and 2.5 μL 4×ATP Solution on Bar-coded Corning, low volume NBS, black 384-well plate (Corning Cat. #3676). Then the mixture was incubated for 60-minute at room temperature for the kinase reaction, followed by addition of 5 μL of a 1:1024 dilution of development reagent A and 30-second plate shake. The mixture was then incubated for another 60-minute at room temperature for development reaction. Fluorescence was read by plate reader. IC50 was calculated by plotting the concentration of compound vs the percentage of inhibition in treated wells using GraphPad Prism 5.
(§4) Table 2 and 3 show % inhibition at 1 μM of several compounds of the invention against BRAF and BRAF V600E, respectively, using Z′-LYTE® method.

For assay [4], the system named is A549 cells. Briefly: Inhibition of cancer cell growth, MTT or MTS assay, A549. The format is cell-based. Conditions: Homo sapiens, 72 h incubation. As for the experimental part: as §1, §2
A general note: Tetrazolium assays rely on reduction of a dye to a coloured formazan, in cell work by metabolically active cells.

Assay [5] deals with Colo205 cells. Description: Inhibition of cancer cell growth, MTT or MTS assay, Colo205. The format is cell-based. Conditions: Homo sapiens, COLO 205, 72 h incubation. The protocol: as §1, §2
Assay [6] concerns the target T3, BRAF V600E (Homo sapiens, UniProt P15056, V600E).
T3 construct: purchased Invitrogen
Description: Z'-LYTE kinase inhibition assay against BRAF V600E. The following applies: Z'-LYTE method. The format is biochemical. As for the experimental part: as §3, §4
The scale utilized in Table 4 is as follows: +++ less than 100 nM; and ++ greater than 100 nM.

The test system of assay [7] is Colo205 tumor xenograft. Briefly: Inhibition of tumor growth in Colo205 tumor xenograft model. The format is in vivo, BALB/c female nude mice. The following applies: 30 mg/kg, qd X 21, i.p. As for the experimental part: Cells were implanted in BALB/c female nude mice and grown as tumor xenografts. When tumors achieved 150-250 mm^3, mice were assigned into treatment and control groups using randomized block design based upon their tumor volumes. Each group contained 6 tumor-bearing mice. Tumors were measured twice weekly in two dimensions using a caliper, and the tumor volume was calculated from two-dimensional measurements using the equation V=0.5×a×b^2 where a and b are the long and short diameters of the tumor, respectively. Relative tumor volume (RTV) was defined as TVt/TVi, the ratio of the volume on a given day (TVt) and the volume at the start of treatment (TVi). Relative tumor growth rate (T/C) was defined as RTVT/RTVC, the ratio of relative tumor volume of treatment group (RTVT) and relative tumor volume of control group (RTVC) on a given day. Inhibition of tumor growth in a Colo205 tumor xenograft model is shown below in Table 10 for compound C14.

T3 sequence (P15056 whole entry V600E): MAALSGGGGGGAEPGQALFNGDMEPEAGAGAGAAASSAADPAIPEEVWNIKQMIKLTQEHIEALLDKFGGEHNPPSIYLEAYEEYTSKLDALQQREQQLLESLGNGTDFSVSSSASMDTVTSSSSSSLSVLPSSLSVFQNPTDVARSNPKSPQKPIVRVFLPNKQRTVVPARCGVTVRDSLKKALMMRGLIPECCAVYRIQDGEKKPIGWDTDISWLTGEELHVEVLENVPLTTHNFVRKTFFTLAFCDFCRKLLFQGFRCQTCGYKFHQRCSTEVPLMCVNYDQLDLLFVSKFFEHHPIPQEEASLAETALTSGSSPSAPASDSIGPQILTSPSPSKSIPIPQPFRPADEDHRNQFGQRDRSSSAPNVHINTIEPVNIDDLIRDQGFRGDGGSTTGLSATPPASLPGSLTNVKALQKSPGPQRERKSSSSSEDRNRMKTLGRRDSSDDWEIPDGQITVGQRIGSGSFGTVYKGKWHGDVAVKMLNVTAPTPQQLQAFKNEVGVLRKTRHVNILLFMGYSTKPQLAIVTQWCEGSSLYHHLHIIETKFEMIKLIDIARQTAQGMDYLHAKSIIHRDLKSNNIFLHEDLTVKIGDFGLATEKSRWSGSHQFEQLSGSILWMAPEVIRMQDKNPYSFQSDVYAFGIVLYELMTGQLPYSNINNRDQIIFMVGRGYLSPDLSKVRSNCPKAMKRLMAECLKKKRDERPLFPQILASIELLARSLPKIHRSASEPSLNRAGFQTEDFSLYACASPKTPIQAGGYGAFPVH
T1 sequence (P35968 20-1356): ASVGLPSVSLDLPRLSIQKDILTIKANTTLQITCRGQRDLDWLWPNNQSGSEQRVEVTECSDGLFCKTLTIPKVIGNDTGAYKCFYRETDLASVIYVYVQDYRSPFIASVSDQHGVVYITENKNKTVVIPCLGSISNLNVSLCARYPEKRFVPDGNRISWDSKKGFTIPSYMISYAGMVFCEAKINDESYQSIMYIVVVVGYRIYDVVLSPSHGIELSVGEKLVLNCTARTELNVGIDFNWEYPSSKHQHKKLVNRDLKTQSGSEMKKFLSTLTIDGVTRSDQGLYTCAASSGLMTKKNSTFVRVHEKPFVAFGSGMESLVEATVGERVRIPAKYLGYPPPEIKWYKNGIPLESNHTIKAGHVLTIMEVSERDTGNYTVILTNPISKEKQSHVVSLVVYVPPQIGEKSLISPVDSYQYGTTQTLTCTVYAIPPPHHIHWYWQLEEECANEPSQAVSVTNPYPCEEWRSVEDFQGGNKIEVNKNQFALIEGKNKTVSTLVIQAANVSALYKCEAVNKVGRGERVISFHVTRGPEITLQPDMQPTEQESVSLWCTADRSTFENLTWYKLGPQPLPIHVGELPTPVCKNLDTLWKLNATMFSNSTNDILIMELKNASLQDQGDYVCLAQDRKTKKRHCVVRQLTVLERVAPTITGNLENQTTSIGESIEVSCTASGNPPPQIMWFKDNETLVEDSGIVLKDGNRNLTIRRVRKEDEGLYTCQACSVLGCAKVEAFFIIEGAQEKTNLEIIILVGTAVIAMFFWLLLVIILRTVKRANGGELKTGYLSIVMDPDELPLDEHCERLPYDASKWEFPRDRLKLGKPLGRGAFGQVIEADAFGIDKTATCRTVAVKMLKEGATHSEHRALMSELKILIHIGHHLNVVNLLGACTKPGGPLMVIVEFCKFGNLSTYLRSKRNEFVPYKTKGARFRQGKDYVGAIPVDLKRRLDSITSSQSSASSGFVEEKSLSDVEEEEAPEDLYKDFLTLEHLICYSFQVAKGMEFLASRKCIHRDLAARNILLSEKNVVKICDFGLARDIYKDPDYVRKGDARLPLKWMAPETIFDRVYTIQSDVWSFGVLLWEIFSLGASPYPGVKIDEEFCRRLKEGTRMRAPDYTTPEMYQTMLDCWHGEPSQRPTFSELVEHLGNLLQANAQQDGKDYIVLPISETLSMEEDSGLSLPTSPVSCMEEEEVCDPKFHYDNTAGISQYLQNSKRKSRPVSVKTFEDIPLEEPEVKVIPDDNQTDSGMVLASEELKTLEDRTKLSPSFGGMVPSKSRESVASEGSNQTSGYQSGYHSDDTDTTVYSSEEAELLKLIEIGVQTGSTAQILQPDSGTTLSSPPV
T2 sequence (P15056 whole entry): as the sequence (P15056 whole entry V600E) above, with E600V counted along it

For the compound `O=C(Nc1ccc(Cl)cc1)Nc1ccc(C(=O)c2ccc3ncc(N4CCNCC4)nc3c2)cc1` [Compound C09, 1-(4-chlorophenyl)-3-(4-(3-(piperazin-1-yl)quinoxaline-6-carbonyl)phenyl)urea], the negative logarithm of the IC50 (pIC50) in assay [1], in assay [4] and in assay [5] was 5.30 to 6.00 in each case. Also, the inhibition at 1 µM in assay [2] was below 70%; in assay [3], 70 to 89%; in assay [6] it was above 89%.

As for `O=C(Nc1ccc(C(=O)c2ccc3ncc(N4CCNCC4)nc3c2)cc1)Nc1cccc(Cl)c1` [Compound C11, 1-(3-chlorophenyl)-3-(4-(3-(piperazin-1-yl)quinoxaline-6-carbonyl)phenyl)urea], the negative logarithm of the IC50 (pIC50) in assay [1] was 5.30 to 6.00; in assay [2] it was below 7.00; in assay [4], 5.30 to 6.00; in assay [5] it was above 6.00. Also, the values for the inhibition at 1 µM in assay [2], in assay [3] and in assay [6] were 70 to 89%, 70 to 89% and above 89%, respectively.

As to `O=C(Nc1ccc(C(=O)c2ccc3ncc(N4CCNCC4)nc3c2)cc1)Nc1ccc(Cl)c(C(F)(F)F)c1` [Compound C12, 1-(4-chloro-3-(trifluoromethyl)phenyl)-3-(4-(3-(piperazin-1-yl)quinoxaline-6-carbonyl)phenyl)urea], the negative logarithm of the IC50 (pIC50) in assay [1] is above 6.00; in assay [2], below 7.00; in assay [4] it was above 6.00; in assay [5], 5.30 to 6.00. The inhibition at 1 µM in assay [2] was 70 to 89%; in assay [3], below 70%; in assay [6] it was 70 to 89%.

On to `O=C(Nc1ccc(C(=O)c2ccc3ncc(N4CCNCC4)nc3c2)cc1)Nc1ccc(F)c(C(F)(F)F)c1` [Compound C14, 1-(4-fluoro-3-(trifluoromethyl)phenyl)-3-(4-(3-(piperazin-1-yl)quinoxaline-6-carbonyl)phenyl)urea], for which the pIC50 is above 6.00 in assay [1]; below 7.00 in assay [2]; above 6.00 in assay [4]; above 6.00 in assay [5]; below 7.00 in assay [6]. For the same compound, the results for the inhibition at 1 µM in assay [2], in assay [3] and in assay [6] were above 89%, below 70% and above 89%, respectively. Moreover, the “T/C (relative tumor growth rate)” value in assay [7] is 65%. Also, the “Tumor Volume Post-treatment” value in assay [7] is 1016 mm3. In addition, the “Tumor Volume Pre-treatment” value in assay [7] (baseline) came out at 233 mm3.

As to `N#Cc1ccc(NC(=O)Nc2ccc(C(=O)c3ccc4ncc(N5CCNCC5)nc4c3)cc2)cc1C(F)(F)F` [Compound C16, 1-(4-cyano-3-(trifluoromethyl)phenyl)-3-(4-(3-(piperazin-1-yl)quinoxaline-6-carbonyl)phenyl)urea], the pIC50 was above 6.00 in assay [1], below 7.00 in assay [2], 5.30 to 6.00 in assay [4] and below 5.30 in assay [5]. In addition, the inhibition at 1 µM was above 89% in assay [2], below 70% in assay [3] and above 89% in assay [6].

In the case of `O=C(Nc1ccc(C(=O)c2ccc3ncc(N4CCNCC4)nc3c2)cc1)Nc1cccc(C(F)(F)F)c1` [Compound C17, 1-(4-(3-(piperazin-1-yl)quinoxaline-6-carbonyl)phenyl)-3-(3-(trifluoromethyl)phenyl)urea], the negative logarithm of the IC50 (pIC50) in assay [1] is above 6.00; in assay [2], above 7.00; in assay [4], above 6.00; in assay [5], 5.30 to 6.00; in assay [6], above 7.00. The inhibition at 1 µM in assay [2] is 70 to 89%; in assay [3] it was below 70%; in assay [6] it was above 89%.

Turning to `O=C(Nc1cccc(C(F)(F)F)c1)Nc1ccc(C(=O)c2ccc3ncc(N4CCNCC4)nc3c2)c(F)c1` [Compound C21, 1-(3-fluoro-4-(3-(piperazin-1-yl)quinoxaline-6-carbonyl)phenyl)-3-(3-(trifluoromethyl)phenyl)urea], the negative-log IC50 (pIC50) in assay [1] is above 6.00; in assay [2], above 7.00; in assay [4], above 6.00; in assay [5], 5.30 to 6.00. Moreover, the inhibition at 1 µM in assay [2] is above 89%; in assay [3], below 70%; in assay [6], above 89%.
